Structures can show the parent of a compound that is named as a salt. Where two headings read alike, the source gives them in different places.
Experiments:
Type in all cases: cell-based
E. coli 257 = experiment: In vitro antibacterial activity (MIC, Mueller-Hinton broth)
Method: Drug dilutions are prepared in Mueller-Hinton broth ranging from 128 to 0.008 μg/ml. The diluted agents are dispensed in 100 μl amounts into the wells of a 96-well tray and used immediately or frozen at -10° to -70° C. until needed. Using an automated inoculator, 1.5 μl of a 10^-2 dilution of an overnight culture is added to each well of the tray. The tops of the trays are then sealed using transparent tape and incubated overnight at 37° C. The trays are examined with the aid of a viewer. The lowest concentration at which no growth is observed is considered to be the minimum inhibitory concentration (MIC).

C. diversus CDC 1663-72 = experiment: In vitro antibacterial activity (MIC)
Procedure, shortened: (§1)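 Overnight cultures, diluted 10^-2, were added at 1.5 μl per well to twofold drug series (128–0.008 μg/ml) in Mueller-Hinton broth.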

E. cloacae 214 = experiment: In vitro antibacterial activity (MIC)
Procedure, shortened: as §1

E. cloacae 5699 = experiment: In vitro antibacterial activity (MIC)
Procedure, shortened: as §1

E. cloacae 9295 = experiment: In vitro antibacterial activity (MIC)
Procedure, shortened: as §1

E. cloacae P99 = experiment: In vitro antibacterial activity (MIC)
Procedure, shortened: as §1

E. coli 48 = experiment: In vitro antibacterial activity (MIC)
Procedure, shortened: as §1

E. coli 5152 = experiment: In vitro antibacterial activity (MIC)
Procedure, shortened: as §1

K. pneumoniae 503-994 = experiment: In vitro antibacterial activity (MIC)
Procedure, shortened: as §1

P. aeruginosa 5700 = experiment: In vitro antibacterial activity (MIC)
Procedure, shortened: as §1

P. aeruginosa 5712 = experiment: In vitro antibacterial activity (MIC); settings: P. aeruginosa 5712
Procedure, shortened: as §1

P. aeruginosa 6148B = experiment: In vitro antibacterial activity (MIC)
Procedure, shortened: as §1

P. aeruginosa 8780 = experiment: In vitro antibacterial activity (MIC); settings: P. aeruginosa 8780
Procedure, shortened: as §1

P. aeruginosa B = experiment: In vitro antibacterial activity (MIC)
Procedure, shortened: as §1

P. mirabilis 2 = experiment: In vitro antibacterial activity (MIC)
Procedure, shortened: as §1

P. mirabilis 90 = experiment: In vitro antibacterial activity (MIC)
Procedure, shortened: as §1

P. vulgaris 100 = experiment: In vitro antibacterial activity (MIC); settings: P. vulgaris 100
Procedure, shortened: as §1

S. marcescens S5 = experiment: In vitro antibacterial activity (MIC)
Procedure, shortened: as §1

S. marcescens S714 = experiment: In vitro antibacterial activity (MIC)
Procedure, shortened: as §1

S. pneumoniae 6302 = experiment: In vitro antibacterial activity (MIC)
Procedure, shortened: as §1

P. aeruginosa 503-820 = experiment: In vitro antibacterial activity (MIC); settings: Pseudomonas aeruginosa, 503820; P. aeruginosa 503-820; read-out: MIC
Procedure, shortened: as §1

S. schottmuelleri = experiment: In vitro antibacterial activity (MIC); settings: read-out: MIC
Procedure, shortened: as §1

[1] = Citrobacter koseri, CDC166372, C. diversus CDC 1663-72, read-out: MIC
[2] = Enterobacter cloacae, 214, E. cloacae 214, read-out: MIC
[3] = Enterobacter cloacae, 5699, E. cloacae 5699, read-out: MIC
[4] = Enterobacter cloacae, 9295, E. cloacae 9295, read-out: MIC
[5] = Escherichia coli, 48, E. coli 48, read-out: MIC
[6] = Klebsiella pneumoniae, 503994, K. pneumoniae 503-994, read-out: MIC
[7] = Pseudomonas aeruginosa, 5700, P. aeruginosa 5700, read-out: MIC
[8] = Pseudomonas aeruginosa, read-out: MIC
[9] = Proteus mirabilis, 2, P. mirabilis 2, read-out: MIC
[10] = Proteus mirabilis, 90, P. mirabilis 90, read-out: MIC
[11] = Proteus vulgaris, read-out: MIC
[12] = Serratia marcescens, S5, S. marcescens S5, read-out: MIC
[13] = Serratia marcescens, S714, S. marcescens S714, read-out: MIC
[14] = Escherichia coli, 257, E. coli 257, read-out: MIC
[15] = Enterobacter cloacae, P99, E. cloacae P99
[16] = Escherichia coli, 5152, E. coli 5152, read-out: MIC
[17] = Streptococcus pneumoniae, 6302, S. pneumoniae 6302, read-out: MIC

SMILES | MIC (E. coli 257; Escherichia coli, 257) | MIC (C. diversus CDC 1663-72; [1]) | MIC (E. cloacae 214; [2]) | MIC (E. cloacae 5699; [3]) | MIC (E. cloacae 9295; [4]) | MIC (E. coli 48; [5]) | MIC (K. pneumoniae 503-994; [6]) | MIC (P. aeruginosa 503-820) | MIC (P. aeruginosa 5700; [7]) | MIC (P. aeruginosa 5712; [8]) | MIC (P. aeruginosa 8780; [8]) | MIC (P. mirabilis 2; [9]) | MIC (P. mirabilis 90; [10]) | MIC (P. vulgaris 100; [11]) | MIC (S. marcescens S5; [12]) | MIC (S. marcescens S714; [13]) | MIC (S. schottmuelleri) | MIC (E. coli 257; [14]) | MIC (E. cloacae P99; [15]) | MIC (E. coli 5152; [16]) | other results
CC1(C)S[C@@H]2[C@H](N=CN3CCCC(CCn4ccnc4)CC3)C(=O)N2[C@H]1C(=O)O.Cl.O (single isomer, unassigned) [D] | – | – | – | – | – | – | – | – | – | – | – | – | – | – | – | – | – | – | – | – | MIC (E. coli 257; E. coli 257): 0.125 µg/mL; MIC (C. diversus CDC 1663-72; C. diversus CDC 1663-72): 0.125 µg/mL; MIC (E. cloacae 214; E. cloacae 214): 0.25 µg/mL; MIC (E. cloacae 5699; E. cloacae 5699): 0.5 µg/mL; MIC (E. cloacae 9295; E. cloacae 9295): 0.5 µg/mL; MIC (E. cloacae P99; E. cloacae P99): 0.125 µg/mL; MIC (E. coli 48; E. coli 48): 0.125 µg/mL; MIC (E. coli 5152; E. coli 5152): 16 µg/mL; MIC (K. pneumoniae 503-994; K. pneumoniae 503-994): 0.125 µg/mL; MIC (P. aeruginosa 5700; P. aeruginosa 5700): 0.5 µg/mL; MIC (P. aeruginosa 5712): > 128 µg/mL; MIC (P. aeruginosa 6148B): > 128 µg/mL; MIC (P. aeruginosa 8780): > 128 µg/mL; MIC (P. aeruginosa B): 0.25 µg/mL; MIC (P. mirabilis 2; P. mirabilis 2): 0.5 µg/mL; MIC (P. mirabilis 90; P. mirabilis 90): 1 µg/mL; MIC (P. vulgaris 100): 16 µg/mL; MIC (S. marcescens S5; S. marcescens S5): 2 µg/mL; MIC (S. marcescens S714; S. marcescens S714): 1 µg/mL; MIC (S. pneumoniae 6302; S. pneumoniae 6302): 8 µg/mL
CC1(C)S[C@@H]2[C@H](N=CN3CCC(CCn4ccnc4)CC3)C(=O)N2[C@H]1C(=O)O [B, [2S-2alpha,5alpha,6beta)]-6-[[[4-[2-(1H-imidazol-1-yl)ethyl]-1-piperidinyl]methylene]amino]-3,3-dimethyl-7-oxo-4-thia-1-azabicyclo[3.2.0]heptane-2-carboxylic acid hydrate hydrochloride] | 0.25 µg/mL | 0.25 µg/mL | 1 µg/mL | 0.5 µg/mL | 0.5 µg/mL | 0.25 µg/mL | 0.25 µg/mL | > 128 µg/mL | > 128 µg/mL | > 128 µg/mL | > 128 µg/mL | 1 µg/mL | 2 µg/mL | 8 µg/mL | 2 µg/mL | 1 µg/mL | 0.25 µg/mL | – | – | – | MIC (E. coli 5152; Escherichia coli, 5152): 16 µg/mL; MIC (P. aeruginosa B; [8]): > 128 µg/mL
CC1(C)S[C@@H]2[C@H](N=CN3CCC(CCCn4ccnc4)CC3)C(=O)N2[C@H]1C(=O)O [C, [2S-(2alpha,5alpha,6beta)]-6-[[4-[3-(1H-imidazol-1-yl)propyl]-1-piperidinyl]methylene]amino]-3,3-dimethyl-7-oxo-4-thia-1-azabicyclo[3.2.0]heptane-2-carboxylic acid 1.2 mole hydrochloride monohydrate] | – | 4 µg/mL | 16 µg/mL | 16 µg/mL | 16 µg/mL | 2 µg/mL | 32 µg/mL | > 128 µg/mL | 16 µg/mL | > 128 µg/mL | > 128 µg/mL | 16 µg/mL | 32 µg/mL | > 128 µg/mL | 64 µg/mL | 32 µg/mL | 4 µg/mL | 2 µg/mL | 8 µg/mL | > 128 µg/mL | MIC (P. aeruginosa 6148B; [8]): > 128 µg/mL; MIC (P. aeruginosa B; [8]): 8 µg/mL; MIC (S. pneumoniae 6302; [17]): 128 µg/mL
CC1(C)S[C@@H]2[C@H](N=CN3CCC(c4ncc[nH]4)CC3)C(=O)N2[C@H]1C(=O)O [O, [2S-(2alpha,5alpha,6beta)]-6-[[[4-(1H-imidazol-2-yl-1-piperidinyl]methylene]amino]-3,3-dimethyl-7-oxo-4-thia-1-azabicyclo[3.2.0]heptane-2-carboxylic acid hydrochloride trihydrate] | 0.125 µg/mL | – | 0.5 µg/mL | 0.5 µg/mL | 1 µg/mL | – | 0.5 µg/mL | > 128 µg/mL | 0.5 µg/mL | > 128 µg/mL | > 128 µg/mL | 1 µg/mL | 0.5 µg/mL | 8 µg/mL | – | 1 µg/mL | 0.125 µg/mL | – | 0.062 µg/mL | 16 µg/mL | MIC (C. diversus CDC 1663-72; Citrobacter koseri, CDC166372): 0.125 µg/mL; MIC (E. coli 48; Escherichia coli, 48): 0.125 µg/mL; MIC (P. aeruginosa 6148B; [8]): > 128 µg/mL; MIC (P. aeruginosa B; [8]): 0.5 µg/mL; MIC (S. pneumoniae 6302; [17]): 1 µg/mL
CC1(C)S[C@@H]2[C@H](N=CN3CCCC(c4ncc[nH]4)C3)C(=O)N2[C@H]1C(=O)O (stereo partly drawn) [P, [2S-(2alpha,5alpha,6beta)]-6-[[[3-(1H-imidazol-2-yl)-1-piperidinyl]methylene]amino]-3,3-dimethyl-7-oxo-4-thia-1-azabicyclo[3.2.0]heptane-2-carboxylicacid hydrochloride] | 2 µg/mL | 2 µg/mL | 8 µg/mL | 8 µg/mL | 8 µg/mL | 2 µg/mL | 8 µg/mL | – | 8 µg/mL | – | – | 8 µg/mL | 8 µg/mL | 128 µg/mL | > 128 µg/mL | – | 2 µg/mL | – | 8 µg/mL | > 128 µg/mL | MIC (S. marcescens S714; Serratia marcescens, S714): 32 µg/mL
CC1(C)S[C@@H]2[C@H](N=CN3CCC(Cc4ncc[nH]4)CC3)C(=O)N2[C@H]1C(=O)O [Q, [2S-(2alpha,5alpha,6beta)]-6-[[[4-(1H-imidazol-2-yl-methyl)-1-piperidinyl]methylene]amino]-3,3-dimethyl-7-oxo-4-thia-1-azabicyclo[3.2.0]heptane-2-carboxylic acid hydrochloride] | – | 0.062 µg/mL | 0.5 µg/mL | 4 µg/mL | 4 µg/mL | 8 µg/mL | 8 µg/mL | – | – | – | – | 8 µg/mL | 0.5 µg/mL | 1 µg/mL | 0.5 µg/mL | 0.25 µg/mL | – | 0.062 µg/mL | 8 µg/mL | 64 µg/mL | MIC (S. pneumoniae 6302; [17]): 2 µg/mL
CC1(C)S[C@@H]2[C@H](N=CN3CCC(CCCn4ccnc4CO)CC3)C(=O)N2[C@H]1C(=O)O [R, [2S-(2alpha,5alpha,6beta)]-6-[[[4-[3-[2-(hydroxymethyl)-1H-imidazol-1-yl]propyl-1-piperidinyl]methylene]amino]-3,3-dimethyl-7-oxo-4-thia-1-azabicyclo[3.2.0]heptane-2-carboxylic acid hydrochloride 1.1 molar hydrate] | – | 0.016 µg/mL | 0.5 µg/mL | 0.062 µg/mL | 0.125 µg/mL | 0.016 µg/mL | 0.016 µg/mL | 128 µg/mL | – | – | – | 0.25 µg/mL | 0.5 µg/mL | 2 µg/mL | 1 µg/mL | 1 µg/mL | < 0.008 µg/mL | 0.016 µg/mL | 0.062 µg/mL | 4 µg/mL | –
CN(C)C=Nc1nccn1CCCC1CCN(C=N[C@@H]2C(=O)N3[C@@H]2SC(C)(C)[C@@H]3C(=O)O)CC1 [S, [2S-(2alpha,5alpha,6beta)]-6-[[[4-[3-[2-[[(dimethylamino)methylene]amino]-1H-imidazol-1-yl]propyl]-1-piperidinyl]methylene]amino]-3,3-dimethyl-7-oxo-4-thia-1-azabicyclo[3.2.0]heptane-2-carboxylic acid 1.7 molar hydrochloride 2.6 molar hydrate] | – | 0.5 µg/mL | 4 µg/mL | 1 µg/mL | 1 µg/mL | – | 0.5 µg/mL | – | – | – | – | 2 µg/mL | 4 µg/mL | 8 µg/mL | 4 µg/mL | 4 µg/mL | 0.25 µg/mL | 0.25 µg/mL | 1 µg/mL | 8 µg/mL | MIC (E. coli 48; Escherichia coli, 48): 0.5 µg/mL
